MIC data for seven molecules are collected here from DBAASP.

Usually MIC stands for the lowest concentration that inhibits growth of the organism. A high value points to weaker potency.

Structures are written as SMILES. In brackets after ≈: the same amount, converted by molar mass.

Holding throughout (assay): ≥ marks a high value that may be exact or a test limit, other limits are often not marked, values filed in µg/mL are converted to µM
Assay [1] relates to Phytophthora nicotianae.
Assay [2] relates to Klebsiella pneumoniae M6.
In assay [3] the test system is Pseudomonas aeruginosa PAO1.
The subject of assay [4] is Pseudomonas syringae pv. tomato.
The subject of assay [5] is Staphylococcus aureus 15.
The subject of assay [6] is Xanthomonas axonopodis pv. phaseoli.
Assay [7] has as its system Enterococcus faecalis NCTC 12201.
For assay [8], the system named is Staphylococcus aureus NCTC 9144.
Assay [9] deals with Pseudomonas aeruginosa NCTC 13437.
For assay [10], the system named is Enterococcus faecalis NCTC 775.
Assay [11] relates to Escherichia coli NCTC 12923.
In assay [12] the test system is Acinetobacter baumannii AYE.
Assay [13] concerns Acinetobacter baumannii ATCC 17987.
The subject of assay [14] is Klebsiella pneumoniae NCTC 13368.
The test system of assay [15] is Enterococcus faecalis NCTC 12204.
For assay [16], the system named is Klebsiella pneumoniae LMG 20218.
Assay [17] has as its system Pseudomonas aeruginosa LMG 6395.
For assay [18], the system named is Escherichia coli LMG 15862.
Assay [19] deals with Acinetobacter baumannii LMG 01041.
Assay [20] concerns Klebsiella aerogenes LMG 02094.
The test system of assay [21] is Acinetobacter baumannii.
The test system of assay [22] is Pseudomonas aeruginosa ATCC 9027.
Assay [23] concerns Escherichia coli ATCC 25922.
Assay [24] deals with Klebsiella pneumoniae ATCC 700603.
Assay [25] concerns Staphylococcus aureus ATCC 29737.
The test system of assay [26] is Klebsiella pneumoniae.
The test system of assay [27] is Staphylococcus aureus.
Assay [28] deals with Candida albicans FRR 5580.
The subject of assay [29] is Staphylococcus aureus ATCC 25923.
Assay [30] relates to Streptococcus pyogenes M1T1 5448.
Assay [31] relates to Escherichia coli BL21.
Assay [32] has as its system Staphylococcus aureus USA 300.
The test system of assay [33] is Staphylococcus aureus ATCC 49476.
Assay [34] deals with Candida albicans.
Assay [35] has as its system Staphylococcus aureus MR.
Assay [36] relates to Pseudomonas aeruginosa ATCC 27853.

In the case of `CC[C@H](C)[C@H](NC(=O)CN)C(=O)N[C@@H](Cc1ccccc1)C(=O)N[C@@H](CO)C(=O)N[C@@H](CCCCN)C(=O)N[C@@H](CC(C)C)C(=O)N[C@@H](C)C(=O)NCC(=O)N[C@@H](CCCCN)C(=O)N[C@@H](CCCCN)C(=O)N[C@@H](CC(C)C)C(=O)N[C@@H](CCCCN)C(=O)N[C@@H](CC(N)=O)C(=O)N[C@@H](CC(C)C)C(=O)N[C@@H](CC(C)C)C(=O)N[C@H](C(=O)N[C@@H](CO)C(=O)NCC(=O)N[C@@H](CC(C)C)C(N)=O)[C@@H](C)CC` [GIFSKLAGKKLKNLLISGL], the MIC in assay [1] turned out to be 12 µM (≈ 24 µg/mL).

Take `CC[C@H](C)[C@H](NC(=O)[C@H](CCC(=O)O)NC(=O)[C@H](CC(N)=O)NC(=O)[C@H](CCCCN)NC(=O)[C@H](CC(C)C)NC(=O)[C@H](CCCCN)NC(=O)[C@H](CCCCN)NC(=O)[C@H](CCCN=C(N)N)NC(=O)[C@@H](NC(=O)[C@H](CCCCN)NC(=O)[C@H](CCC(=O)O)NC(=O)[C@H](CCCCN)NC(=O)[C@H](Cc1c[nH]c2ccccc12)NC(=O)[C@H](C)N)[C@@H](C)CC)C(=O)N[C@@H](CCCCN)C(=O)N[C@@H](CCCCN)C(=O)N[C@@H](CCCCN)C(=O)NCC(=O)N[C@@H](CCCN=C(N)N)C(=O)N[C@@H](CCCCN)C(=O)N[C@@H](C)C(=O)N[C@H](C(=O)N[C@H](C(=O)N[C@@H](C)C(=O)N[C@@H](Cc1c[nH]c2ccccc12)C(=O)O)[C@@H](C)CC)C(C)C` [AWKEKIRKKLKNEIKKKGRKAVIAW]: the MIC in assay [2] was ≥ 42 µM; in [3], > 42 µM; in assay [4], 0.164 µM (≈ 0.5 µg/mL); in [5], ≥ 42 µM; in assay [6], 0.164 µM (≈ 0.5 µg/mL); in [7], ≥ 42 µM. Also, the MIC in assay [8] was 5.24 µM (≈ 16 µg/mL); in assay [9], ≥ 42 µM; in [10] it was ≥ 42 µM; in assay [11], 2.62 µM (≈ 8 µg/mL); in assay [12], 2.62 µM (≈ 8 µg/mL); in assay [13] it was 5.24 µM (≈ 16 µg/mL). The MIC in assay [14] and in assay [15] was ≥ 42 µM each time.

On to `CC[C@H](C)[C@H](NC(=O)[C@H](C)N)C(=O)N[C@H](C(=O)N[C@@H](CCC(N)=O)C(=O)N[C@@H](CCCN=C(N)N)C(=O)N[C@H](C(=O)N[C@@H](CCCCN)C(=O)N[C@@H](CCCCN)C(=O)N[C@@H](Cc1c[nH]c2ccccc12)C(=O)N[C@@H](CC(C)C)C(=O)N[C@@H](CCCN=C(N)N)C(N)=O)[C@@H](C)CC)C(C)C` [AIVQRIKKWLR], for which the MIC in [16] was 24 µM (≈ 33.8 µg/mL); in [17], 16 µM (≈ 22.6 µg/mL); in assay [18] it was 12 µM (≈ 16.9 µg/mL); in assay [19] it was ≥ 128 µM; in assay [20], ≥ 128 µM.

Consider `CC(C)C[C@H](NC(=O)[C@H](Cc1c[nH]c2ccccc12)NC(=O)[C@@H](NC(=O)[C@H](CC(C)C)NC(=O)[C@@H]1CCCN1C(=O)[C@@H](N)Cc1ccccc1)[C@@H](C)O)C(=O)N[C@@H](CCCCN)C(=O)N[C@@H](Cc1c[nH]c2ccccc12)C(=O)N[C@@H](Cc1c[nH]c2ccccc12)C(=O)N[C@@H](CCCCN)C(=O)N[C@@H](Cc1c[nH]c2ccccc12)C(=O)N[C@@H](CCCCN)C(=O)N[C@@H](CCCCN)C(N)=O` [FPLTWLKWWKWKK], for which the MIC in assay [21] came out at 16.9 µM (≈ 31.2 µg/mL); in assay [22], 33.8 µM (≈ 62.5 µg/mL); in [23] it was 16.9 µM (≈ 31.2 µg/mL); in [24] it was 8.45 µM (≈ 15.6 µg/mL); in assay [25], 8.45 µM (≈ 15.6 µg/mL); in assay [26], 8.66 µM (≈ 16 µg/mL).

`NCCCC[C@H](NC(=O)[C@H](Cc1c[nH]c2ccccc12)NC(=O)[C@H](Cc1c[nH]c2ccccc12)NC(=O)[C@H](CCCCN)NC(=O)[C@H](Cc1c[nH]c2ccccc12)NC(=O)[C@H](Cc1c[nH]c2ccccc12)NC(=O)[C@H](CCCN=C(N)N)NC(=O)[C@H](Cc1c[nH]c2ccccc12)NC(=O)[C@H](Cc1c[nH]c2ccccc12)NC(=O)[C@H](CCCN=C(N)N)NC(=O)[C@H](CCCCN)NC(=O)[C@@H](N)CCCN=C(N)N)C(=O)N[C@@H](CCCN=C(N)N)C(N)=O` [RKRWWRWWKWWKR]: the MIC in assay [27] amounted to 5.28 µM (≈ 11.3 µg/mL); in assay [22] it was 7.46 µM (≈ 16 µg/mL); in assay [28] it was 29.8 µM (≈ 64 µg/mL); in [23], 7.46 µM (≈ 16 µg/mL); in assay [29], 7.46 µM (≈ 16 µg/mL).

`CC[C@H](C)[C@H](NC(=O)[C@H](CCCN=C(N)N)NC(=O)[C@H](CCCCN)NC(=O)[C@@H](NC(=O)[C@H](CCCCN)NC(=O)[C@H](CCCN=C(N)N)NC(=O)[C@@H](NC(=O)[C@H](Cc1ccc(O)cc1)NC(=O)[C@H](CCCN=C(N)N)NC(=O)[C@H](CCCN=C(N)N)NC(=O)[C@H](CC(C)C)NC(=O)[C@H](CCC(=O)O)NC(=O)[C@H](CCCCN)NC(=O)[C@H](C)NC(=O)[C@@H](NC(=O)[C@H](CCCN=C(N)N)NC(=O)[C@H](CC(N)=O)NC(=O)[C@@H](NC(=O)CNC(=O)[C@H](C)N)[C@@H](C)O)[C@@H](C)CC)[C@@H](C)CC)C(C)C)C(=O)N[C@@H](C)C(=O)N[C@@H](CCCN=C(N)N)C(=O)N[C@@H](CCCCN)C(=O)N[C@@H](C)C(=O)N[C@@H](Cc1c[nH]c2ccccc12)C(=O)O` [AGTNRIAKELRRYIRKVKRIARKAW]: the MIC amounted to 16 µM (≈ 48.9 µg/mL) in [3], 1 µM (≈ 3.05 µg/mL) in assay [30], 0.5 µM (≈ 1.53 µg/mL) in assay [31] and 16 µM (≈ 48.9 µg/mL) in [32].

For `CC[C@H](C)[C@H](NC(=O)[C@H](CC(C)C)NC(=O)[C@H](CCCN=C(N)N)NC(=O)[C@H](Cc1cnc[nH]1)NC(=O)[C@H](CCC(=O)O)NC(=O)[C@H](C)NC(=O)[C@H](CCCCN)NC(=O)CNC(=O)[C@H](C)NC(=O)[C@H](CO)NC(=O)[C@H](Cc1ccccc1)NC(=O)[C@H](CC(C)C)NC(=O)CNC(=O)CNC(=O)[C@@H](NC(=O)[C@@H](NC(=O)[C@H](Cc1cnc[nH]1)NC(=O)[C@H](Cc1cnc[nH]1)NC(=O)[C@@H](NC(=O)[C@@H](N)Cc1ccccc1)[C@@H](C)CC)[C@@H](C)CC)[C@@H](C)CC)C(=O)N[C@@H](CCCN=C(N)N)C(=O)N[C@@H](CCCN=C(N)N)C(=O)N[C@@H](CCCN=C(N)N)C(=O)N[C@@H](CCCN=C(N)N)C(=O)N[C@@H](CCCN=C(N)N)C(=O)O` [FIHHIIGGLFSAGKAEHRLIRRRRR], the MIC in assay [33] is ≥ 171 µM; in assay [34], 42.7 µM (≈ 128 µg/mL); in [35] it was ≥ 171 µM; in assay [36] it was > 171 µM.
